Measured values taken from article PMC5438364, “A broad-spectrum bactericidal lipopeptide with anti-biofilm properties” (Scientific Reports, 2017).
Read-outs that look alike come from different tables or passages of the source. Where a SMILES comes first, the peptide text is derived from it. [ ]: non-standard residue; d: D form. The star is where a group is joined. Palmitoyl = CCCCCCCCCCCCCCCC(=O)*; Lauroyl = CCCCCCCCCCCC(=O)*; 12Ado = NCCCCCCCCCCCC(=O)O; Decanoyl = CCCCCCCCCC(=O)*; Octanoyl = CCCCCCCC(=O)*

Columns and labels:
E. coli = conditions: microdilution; cited from earlier work
Description: Table 2 Modulating biophysical properties of a core sequence by conjugating an N-terminal acyl. | column: MIC^c (µM) / E.c.

[1] = Hydrophobicity by C18 RP-HPLC elution; assay type: physicochemical; conditions: chromatographic, RP-HPLC C18 (Vydac), flow 2 ml/min, linear acetonitrile gradient 1%/min
Experimental: OAKs were synthesized in-house (433 A Peptide Synthesizer; Applied Biosystems, Foster City, CA, USA) by the solid-phase method using 9-fluorenylmethyloxycarbonyl (Fmoc) active-ester chemistry on 4-methylbenzhydrylamine (MBHA) resin. OAKs were then deprotected and cleaved from the resin using trifluoroacetic acid:H2O (95:5) and purified to >95% chromatographic homogeneity by reverse phase high performance liquid chromatography (RP-HPLC) using C18 column (Vydac), a flow rate of 2 ml/min and a linear acetonitrile gradient of 1%/min (Alliance; Waters, Milford, MA, USA). Peaks identity was verified by mass-spectrometry (Xevo G2 Tof; Waters, Milford, MA, USA). Purified OAKs were then lyophilized and kept as dry powder at −20 °C.

bacteria = conditions: cited from earlier work
Description: A variety of strategies were proposed to generate chemical mimics of AMPs to alleviate complications associated with peptide drugs, [31]. AMP-mimics may also be beneficial in helping to improve understanding the complex molecular basis for AMPs function(s) owing to their relative molecular/structural simplicity. Namely, while charge and hydrophobicity represent most critical factors influencing AMP properties, it is often challenging to identify the respective optimal proportions for controlling potency or selectivity. For instance, excess hydrophobicity might promote self-assembly in aque ...

S. mutans = experiment: microbe, parasite or virus in culture; assay type: cell-based, Streptococcus mutans
Experimental: Staphylococci, Bacilli, Escherichia, Pseudomonas, Acinetobacter, Salmonella and Klebsiella species were grown in Luria Bertani broth (LB; 5 gr/l NaCl, 5 gr/l yeast extract, 10 gr/l tryptone). Enterococci and E. coli ML-35p were grown in Tryptic Soy Broth (TSB). Listeria and Streptococci were grown in Brain Heart Infusion (BHI). All bacteria were grown over-night at 37 °C with shaking. S. mutans 35668 plated on BHI agar for enumeration was grown for 48 hr. S. mutans UA159 was grown in 5% CO2 enriched atmosphere. Fusobacterium and Porphyromonas were grown in Wilkins-Chalgren growth medium and an anaerobic atmosphere.
Minimal inhibitory concentration (MIC) was determined using the microdilution assay. Mid-log-phase bacteria at 5 × 10^5 CFU/ml were incubated in a 96-well plate with serial two-fold dilutions of the tested compound for 18–24 hr at 37 °C (final volume of 200 µl). O.D. at 620 nm was measured (Synergy HT, BioTek Instruments, Winooski, VT, USA), and the MIC was determined as the lowest concentration for which no increase in O.D. was detected.

[2] = under similar conditions; increased with increasing hydrophobicity; cited from earlier work
GPB and GNB = experiment: Effect observed at low concentrations, analog series; assay type: cell-based; conditions: summary of this and previous studies
Experimental: Table 2 Modulating biophysical properties of a core sequence by conjugating an N-terminal acyl. | column: Effect observed at low concentrations (<3 µM)

S. mutans ATCC 35668 = experiment: Bactericidal kinetics (time-kill); assay type: cell-based, Streptococcus mutans; conditions: time-kill kinetics in BHI
Experimental: Bactericidal kinetics was assessed by incubating 5 × 10^5 CFU/ml of mid-log-phase bacteria with the OAK for 3 hr at 37 °C with shaking. Aliquots were taken at t = 0, 0.5, 1, 2 and 3 hr, subjected to serial 10-fold dilutions in saline (NaCl = 0.85%) and plated for enumeration after 24–48 hr incubation at 37 °C.

[3] = test system: S. mutans ATCC 35668 biofilm; experiment: Anti-biofilm activity on pre-formed biofilm; assay type: cell-based, Streptococcus mutans; conditions: ≥0.5 mM, within one hour of exposure, inoculum 10^9 CFU/ml
Experimental: Anti-biofilm activity was evaluated against established biofilms in 96-well plates as follows. 200 µl of mid-log-phase S. mutans 35668 at 5 × 10^5 CFU/ml in BHI containing 2% sucrose were placed in each well, and plates were incubated for 24 hr at 37 °C without shaking. Unattached cells were removed by decanting the plates and biofilms were washed three times with milliQ water. Solutions of the tested compounds were placed on the biofilms for up to 3 hr at 37 °C without shaking. Plates were decanted in 0.5 hr intervals and biofilms were washed three times with milliQ water to remove any compound residues. Biofilms were scraped from the bottom of the wells, suspended in BHI and sonicated for 5 min in a sonication bath, subjected to serial 10-fold dilutions in saline and plated on BHI agar for enumeration.

Row | SMILES | MIC E.c. (E. coli) | H, hydrophobicity, defined as % acetonitrile eluent in C18 HPLC column [1] [%] | antibacterial activity (bacteria) | MIC (S. mutans) [µM] | binding affinity to LPS [2] | Effect observed at low concentrations (<3 µM) (GPB and GNB) | multiples of MIC at which bactericidal (S. mutans ATCC 35668) | killing of the initial inoculum in preformed biofilm [3] [%] | higher potency (MIC) than C14KKc12K (S. mutans; MIC of CHX versus C14KKc12K on S. mutans) [fold] | MIC (S. mutans; Streptococcus mutans, microdilution, BHI, 18–24 hr, 37 °C) [µM]
1 | CCCCCCCC(=O)N[C@@H](CCCCN)C(=O)N[C@@H](CCCCN)C(=O)NCCCCCCCCCCCC(=O)N[C@@H](CCCCN)C(N)=O [C8KKc12K] (Octanoyl-KK[12Ado]K-NH2) | >50[40] µM | 41 | essentially inactive | 50 | lower than that of C14KKc12K | Weak perturbations of GNB outer membrane (normal growth) | – | – | – | –
2 | CCCCCCCCCC(=O)N[C@@H](CCCCN)C(=O)N[C@@H](CCCCN)C(=O)NCCCCCCCCCCCC(=O)N[C@@H](CCCCN)C(N)=O [C10KKc12K] (Decanoyl-KK[12Ado]K-NH2) | >50[40] µM | 46 | essentially inactive | 6.25 | lower than that of C14KKc12K | Weak growth inhibition of some GPB and transient membrane damages including partial depolarization of CM (slight delay in GNB growth) | – | – | – | –
3 | CCCCCCCCCCCC(=O)N[C@@H](CCCCN)C(=O)N[C@@H](CCCCN)C(=O)NCCCCCCCCCCCC(=O)N[C@@H](CCCCN)C(N)=O [C12KKc12K] (Lauroyl-KK[12Ado]K-NH2) | 16[40] µM | 51 | – | 1.56 | lower than that of C14KKc12K | Impairing membrane damages leading to a bacteriostatic mode of action in GPB; OM permeabilization & delayed growth in GNB | – | – | – | –
4 | CCCCCCCCCCCCCCCC(=O)N[C@@H](CCCCN)C(=O)N[C@@H](CCCCN)C(=O)NCCCCCCCCCCCC(=O)N[C@@H](CCCCN)C(N)=O [C16KKc12K] (Palmitoyl-KK[12Ado]K-NH2) | 25[24] µM | 62 | – | 1.56 | – | Trend reversal (reduced potency) due to excess hydrophobicity as self-assembly approaches the critical aggregation concentration | – | – | – | –
5 | [H]/N=C(\N/C(=N/[H])NCCCCCCNC(=N)NC(=N)Nc1ccc(Cl)cc1)Nc1ccc(Cl)cc1 [CHX, chlorhexidine, reference compound] | – | – | – | – | – | – | 40 multiples of its MIC | > 99 | ~3 | 0.3
6 | NCCCC[C@H](NC(=O)CCCCCCCCCCCNC(=O)[C@H](CCCCN)NC(=O)[C@@H](N)CCCCN)C(N)=O [H-KKc12K-NH2] (H-KK[12Ado]K-NH2) | >50[40] µM | 27 | inactive | >50 | – | Not observed (normal growth) | – | – | – | –
